Results as given in patent US20180325889A1, “IMMUNOREGULATORY AGENTS” (FLEXUS BIOSCIENCES, INC., priority 2014, published 2018).

target: T1, human IDO1/HEK293 cells (Homo sapiens, UniProt P14902); assay: HEK Human IDO-1 cell-based IDO inhibition assay (kynurenine production); details: HEK293 cells stably expressing human IDO1, 20 hours incubation, absorbance at 490 nm; read-out: HEK Human IDO-1 Bio Activity (IDO IC50)
T1 construct: expressed in transfected cells
Method in brief: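 Stopped with 0.2% TCA, 50 °C 30 min; supernatant mixed with 0.2% Ehrlich reagent, 30 min RT, kynurenine read as absorbance at 490 nm.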

T1 sequence (P14902 whole entry): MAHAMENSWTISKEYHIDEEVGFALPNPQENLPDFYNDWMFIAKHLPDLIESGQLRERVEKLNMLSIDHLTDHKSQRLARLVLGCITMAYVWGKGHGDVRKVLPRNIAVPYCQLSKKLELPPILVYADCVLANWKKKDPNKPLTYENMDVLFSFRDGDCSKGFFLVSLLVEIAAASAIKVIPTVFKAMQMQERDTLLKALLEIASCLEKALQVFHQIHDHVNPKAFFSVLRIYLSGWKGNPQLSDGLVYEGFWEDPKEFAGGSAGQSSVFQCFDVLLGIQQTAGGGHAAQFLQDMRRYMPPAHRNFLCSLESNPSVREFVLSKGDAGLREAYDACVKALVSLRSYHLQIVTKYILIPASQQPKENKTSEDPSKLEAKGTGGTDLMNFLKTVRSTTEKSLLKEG

| Compound | IC50 |
| --- | --- |
| CC1(CNC(=O)c2ccc(Cl)cc2)CCN(c2ccnc3ccc(F)cc23)CC1 [Example 226, 4-Chloro-N-((1-(6-fluoroquinolin-4-yl)-4-methylpiperidin-4-yl)methyl)benzamide] | < 2 µM |
| O=C(Nc1ccc(F)c(F)c1)N[C@H]1CC[C@H](c2ccnc3ccc(F)cc32)CC1 [Example 123, 1-(3,4-difluorophenyl)-3-(trans-4-(6-fluoroquinolin-4-yl)cyclohexyl)urea] | < 0.25 µM |
| CCC(NC(=O)c1ccc(Cl)cc1)C1CCC(c2cccc(C(F)F)n2)CC1 (mixture of isomers) [Example 231a, 4-chloro-N-(1-(4-(6-(difluoromethyl)pyridin-2-yl)cyclohexyl)propyl)benzamide] | < 0.25 µM |
| CC(NC(=O)c1ccc(Cl)cc1)C1CCC(c2ccnc(C(F)(F)F)c2)CC1 (stereo not shown) [Example 211, 4-chloro-N-(1-(4-(2-(trifluoromethyl)pyridin-4-yl)cyclohcxyl)ethyl)benzamide] | < 0.25 µM |
| O=C(O)Cc1ccc(CN[C@H]2CC[C@H](c3ccnc4ccc(F)cc43)CC2)cc1 [Example 139, 2-(4-(((trans-4-(6-Fluoroquinolin-4-yl)cyclohexyl)amino)methyl)phenyl)acetic acid] | < 2 µM |
| CCC(NC(=O)c1ccc(Cl)cc1)[C@H]1CC[C@H](Oc2ccnc3c(C(F)(F)F)cccc23)CC1 (stereo partly drawn) [Example 72, 4-Chloro-N-(1-((trans)-4-((8-(trifluoromethyl)quinolin-4-yl)oxy)cyclohexyl)propyl)benzamide] | < 2 µM |
| CCC(NC(=O)c1ccc(Cl)cc1)[C@H]1CC[C@@H](Oc2ccnc3ccccc23)CC1 (stereo partly drawn) [Example 80, 4-Chloro-N-(1-(cis-4-(quinolin-4-yloxy)cyclohexyl)propyl)benzamide] | < 2 µM |
| CC(NC(=O)c1ccc(Cl)cc1)C1CCC(c2ccc(C(F)(F)F)nc2)CC1 (stereo not shown) [Example 216, 4-chloro-N-(1-(4-(6-(trifluoromcthyr)pyridin-3-yl)cyclohexyl)ethyl)benzamide] | < 0.25 µM |
| O=C(Nc1ccc(Cl)cc1F)N[C@H]1CC[C@H](c2ccnc3ccc(F)cc32)CC1 [Example 120, 1-(4-chloro-2-fluorophenyl)-3-(trans-4-(6-fluoroquinolin-4-yl)cyclohexyl)urea] | < 0.05 µM |
| COc1ccc(C(=O)NC(C)C2CCC(Oc3ccnc(C)c3Cl)CC2)cc1 (racemic) [Example 209] | < 0.25 µM |
| CCC(NC(=O)c1ccc(Cl)cc1)C1CCC(c2cccc(C(F)F)n2)CC1 (single isomer, unassigned) [Example 231b, 4-chloro-N-(1-(4-(6-(difluoromethyl)pyridin-2-yl)cyclohexyl)propyl)benzamide] | < 2 µM |
| Cc1nccc(O[C@H]2CC[C@H](C(C)NC(=O)c3ccc(Cl)cc3)CC2)c1Cl (mixture of isomers) [Example 207, rac-4-chloro-N-(1-((trans)-4-((3-chloro-2-methylpyridin-4-yl)oxy)cyclohexyl)ethyl)benzamide] | < 0.05 µM |
| O=C(Nc1ccc(F)cc1F)N[C@H]1CC[C@H](c2ccnc3ccc(F)cc32)CC1 [Example 122, 1-(2,4-difluorophenyl)-3-(trans-4-(6-fluoroquinolin-4-yl)cyclohexyl)urea] | < 0.25 µM |

The remaining lines, values ahead:

| IC50 | Compound |
| --- | --- |
| < 0.05 µM | C[C@@H](NC(=O)c1ccc(C#N)cc1)[C@H]1CC[C@@H](c2ccnc3ccc(F)cc32)CC1 [Example 176, 4-cyano-N-((R)-1-(cis-4-(6-fluoroquinolin-4-yl)cyclohexyl)ethyl)benzamide] |
| < 0.25 µM | C[C@@H](NC(=O)c1ccc(N2CCOCC2)cc1)[C@H]1CC[C@@H](c2ccnc3ccc(F)cc32)CC1 [Example 246, N-((R)-1-((1s,4S)-4-(6-fluoroquinolin-4-yl)cyclohexyl)ethyl)-4-morpholinobenzamide] |
| < 0.05 µM | C[C@@H](NC(=O)c1ccc(-c2cnccn2)cc1)[C@H]1CC[C@@H](c2ccnc3ccc(F)cc32)CC1 [Example 233, N-((R)-1-((1s,4S)-4-(6-fluoroquinolin-4-yl)cyclohexyl)ethyl)-4-(pyrazin-2-yl)benzamide] |
| < 0.05 µM | C[C@@H](NS(=O)(=O)c1cccc(Cl)c1)[C@H]1CC[C@@H](c2ccnc3ccc(F)cc32)CC1 [Example 44, 3-chloro-N-((R)-1-((1s,4S)-4-(6-fluoroquinolin-4-yl)cyclohexyl)ethyl)benzenesulfonamide] |
| < 0.05 µM | Cc1c(C2CCC(C(C)NC(=O)c3ccc(-c4ccccc4)cc3)CC2)ccnc1F (stereo not shown) [Example 221, N-(1-(4-(2-fluoro-3-methylpyridin-4-yl)cyclohexyl)ethyl)-[1,1′-biphenyl]-4-carboxamide] |
| < 0.05 µM | CCC(NC(=O)c1ccc(C#N)cc1)C1CCC(c2ccnc3ccc(F)cc23)CC1 (single isomer, unassigned) [Example 165c, 4-Cyano-N-(1-(4-(6-fluoroquinolin-4-yl)cyclohexyl)propyl)benzamide] |
| < 0.05 µM | Cc1cccc(C(=O)N[C@H](C)[C@H]2CC[C@@H](c3ccnc4ccc(F)cc43)CC2)c1 [Example 50, N-((R)-1-((1s,4S)-4-(6-fluoroquinolin-4-yl)cyclohexyl)ethyl)-3-methyl benzamide] |
| < 2 µM | Cc1cccc(S(=O)(=O)N[C@H](C)[C@H]2CC[C@@H](c3ccnc4ccc(F)cc43)CC2)c1 [Example 40, N—((R)-1-((1 s,4S)-4-(6-Fluoroquinolin-4-yl)cyclohexyl)ethyl)-3-methylbenzenesulfonamide] |
| < 0.25 µM | Cc1nnc(-c2ccc(C(=O)N[C@H](C)[C@H]3CC[C@@H](c4ccnc5ccc(F)cc54)CC3)cc2)o1 [Example 232, N—((R)-1-((1s,4S)-4-(6-fluoroquinolin-4-yl)cyclohexyl)ethyl)-4-(5-methyl-1,3,4-oxadiazol-2-yl)benzamide] |
| < 0.05 µM | C[C@@H](NC(=O)c1ccc(C2(C)CC2)cc1)[C@H]1CC[C@@H](c2ccnc3ccc(F)cc32)CC1 [Example 248, N-((R)-1-((1s,4S)-4-(6-fluoroquinolin-4-yl)cyclohexyl)ethyl)-4-(1-methylcyclopropyl)benzamide] |
| < 0.05 µM | CCC(NC(=O)c1ccc(C#N)cc1)C1CCC(c2ccnc3ccc(F)cc23)CC1 (single isomer, unassigned) [Example 165d, 4-Cyano-N-(1-(4-(6-fluoroquinolin-4-yl)cyclohexyl)propyl)benzamide] |
| < 0.05 µM | Cc1ccc(C(=O)N[C@H](C)[C@H]2CC[C@@H](c3ccnc4ccc(F)cc43)CC2)cc1 [Example 51, N-((R)-1-((1s,4S)-4-(6-fluoroquinolin-4-yl)cyclohexyl)ethyl)-4-methylbenzamide] |
| < 0.05 µM | C[C@@H](NC(=O)c1ccccc1-c1ccccc1)[C@H]1CC[C@@H](c2ccnc3ccc(F)cc32)CC1 [Example 69, N-((R)-1-((1s,4S)-4-(6-fluoroquinolin-4-yl)cyclohexyl)ethyl)-[1,1′-biphenyl]-2-carboxamide] |
| < 0.05 µM | C[C@@H](NC(=O)c1ccc(C(F)(F)F)cc1)[C@H]1CC[C@@H](c2ccnc3ccc(F)cc32)CC1 [Example 249, N-((R)-1-((1s,4S)-4-(6-fluoroquinolin-4-yl)cyclohexyl)ethyl)-4-(trifluoromethyl)benzamide] |
| < 0.05 µM | C=CC[C@@H](NC(=O)c1ccc(Cl)cc1)[C@H]1CC[C@@H](c2ccnc3ccc(F)cc32)CC1 [Example 198, 4-chloro-N—((R)-1-((1s, 4S)-4-(6-fluoroquinolin-4-yl)cyclohexyl)but-3-en-1-yl) benzamide] |
